Where two headings read alike, the source gives them in different places.

For series [1], the system named is kidney disease model rats. As to conditions: cited from earlier work.
Series [2] in a line: Acute toxicity, single oral dose in mice. As to conditions: 500 mg/kg single oral dose, 6 days, 5 per group. It is filed as in vivo, ICR female mice. As to the method:
Five-week-old ICR female mice (5 mice per group) were bred for acclimation for a week. Then, the compounds of the present invention were dissolved or dispersed in an aqueous solution of 0.5% methylcellulose, and orally administered to the mice in a single dosage (500 mg/kg).

The target in series [3] is T1, angiotensin II receptor subtype 2 (AT2) (Bos taurus, UniProt G5E6F7).
T1 construct: from cerebellar cortex in bovine; from tissue; host or cells: bovine cerebellar cortex
T1 sequence (G5E6F7 1-362): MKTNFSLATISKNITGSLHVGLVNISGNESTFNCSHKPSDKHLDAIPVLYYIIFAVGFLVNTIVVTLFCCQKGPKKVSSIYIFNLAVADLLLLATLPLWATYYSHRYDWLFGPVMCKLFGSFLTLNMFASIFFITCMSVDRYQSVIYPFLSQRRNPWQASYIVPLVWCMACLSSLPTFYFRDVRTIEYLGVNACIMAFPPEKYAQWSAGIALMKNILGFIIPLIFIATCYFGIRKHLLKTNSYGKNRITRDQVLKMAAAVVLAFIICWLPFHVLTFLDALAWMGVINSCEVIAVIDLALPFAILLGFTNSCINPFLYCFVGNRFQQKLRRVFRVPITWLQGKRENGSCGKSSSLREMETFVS
In words: Binding to angiotensin II receptor subtype 2 (AT2). The arrangement: species or system bovine (cerebellar cortex). As to conditions: 125I-Tyr4-angiotensin II tracer, 37° C., 1 hour. As to the method: (§1) In this Example, the affinity to the angiotensin II receptor subtype 1 or subtype 2 was evaluated by a binding assay in accordance with the method described in Biochem. Pharmacol., 33, 4057-4062 (1984).
(§2) Specifically, the measurement of the total binding in the presence of each drug was performed as follows:
(§3) A mixture (final volume=0.25 ml) of a drug in a given concentration (the drug was dissolved in DMSO, and diluted to a double volume with a buffer attached to a drug discovery system to prepare sample for the assay; 0,025 ml), a tracer (0.025 ml), and receptors (0.2 ml) was incubated [in the case of the angiotensin II receptor subtype 1 (AT1), at room temperature for 3 hours, and in the case of the subtype 2 (AT2), at 37° C. for 1 hour]. Then, the reaction mixture was filtered with suction (GF/C filter was used in AT1, and GF/B filter was used in AT2). The filter papers after filtration with suction (the tracer bound to the receptors) were counted by a γ-well counter (ARC-500, Aloka). The non-specific bindings were measured by repeating the above method, except that a large excess amount of a displacer was added. The specific binding of the drug in the given concentration was calculated by subtracting the non-specific binding from the total binding, respectively.
(§4) In AT1 and AT2, the percentages to inhibit the bindings of radioactive ligands (tracer) to receptors by the drugs to be tested (IC50 value of concentration to show 50% inhibition, or binding inhibition % in 100 μM) were measured, using the drugs to be tested and control drugs in the given concentration.
from cerebellar cortex in bovine
tracer: ^125 I-Tyr^4 -angiotensin II

Series [4] concerns kidney disease model rats. In words: Action to depress blood pressure in kidney disease model rats (tail cuff). The format is in vivo, Sprague-Dawley female rats. As to conditions: 20 mg/kg per os; for Blood pressure (average systolic): after two days, control 210 mmHg. The procedure:
(§5) The compounds of the present invention and the reference substance were forcedly administered per os to kidney disease model rats, and the action to depress blood pressure was observed. The kidney disease model rats were prepared by ligature of branches of renal artery in accordance with the conventional method, that is, the left hilum renalis of Sprague-Dawley female rats was exposed under anesthesia, and one of four secondary branches of renal artery was left unligated, while the remaining three branches were ligated, respectively. After a week, the hilum renalis (artery, vein, and ureter) of the right kidney were further ligated to thereby prepare the rats whose renal function was lowered to approximately 1/8 of the normal function. Each group consisted of eight rats. The drugs to be tested (20 mg/kg) were administered to each administering group, and only water was administered to control group. After two days from the administration, the systolic blood pressure was measured by the tail cuff method using a blood pressure measuring apparatus (UR5000; Ueda).

In series [5] the target is T2, angiotensin II receptor subtype 1 (AT1) (Oryctolagus cuniculus, UniProt P34976).
T2 construct: from adrenal glands in rabbits; from tissue; host or cells: rabbit adrenal glands
T2 sequence (P34976 1-359): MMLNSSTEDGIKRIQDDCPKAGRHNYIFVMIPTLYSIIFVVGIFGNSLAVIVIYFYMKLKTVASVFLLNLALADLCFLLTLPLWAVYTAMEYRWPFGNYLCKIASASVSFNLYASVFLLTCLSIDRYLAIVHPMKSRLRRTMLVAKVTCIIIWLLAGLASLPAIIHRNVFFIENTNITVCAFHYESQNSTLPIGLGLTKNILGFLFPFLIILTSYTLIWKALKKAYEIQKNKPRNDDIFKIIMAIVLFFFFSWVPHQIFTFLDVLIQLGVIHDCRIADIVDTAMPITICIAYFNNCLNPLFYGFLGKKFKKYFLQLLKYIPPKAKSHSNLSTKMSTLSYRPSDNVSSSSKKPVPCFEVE
The series can be described thus: Binding to angiotensin II receptor subtype 1 (AT1). Details: species or system rabbits (adrenal glands). Conditions: 100 μM; 3H-angiotensin II tracer. As to the method:
as §1, §2, §3, §4

For series [6], the system named is kidney disease model rats. The series can be described thus: Action to survival time of kidney diseased animals. The format is in vivo, Sprague-Dawley female rats. As to conditions: 20 mg/kg/day per os; observation eight weeks (upper limit); control 5.0. As to the method: as §5
The kidney disease model rats were prepared as in Example 21. Fifteen groups (8 rats per group) were prepared in a manner so that there was no major difference between the groups in the serum creatinine value and the urea nitrogen value indicating renal function. The rats in each group were allowed to freely take up feed and water. […] To the rats in the control group, only water was forcedly administered per os every day. If kidney diseases are aggravated, the rat will die of uremia. Thus, the survival time was observed as comprehensive indication of the improvement effect on the kidney diseases. The observation period was eight weeks. Thus if all rats survived, the average survival time is eight weeks and it is an upper limit.

Series [7] has as its system kidney disease model rats. In words: Renal function indicatory value (action to kidney diseases). The format is in vivo, Sprague-Dawley female rats. As to conditions: 20 mg/kg/day per os, two weeks; for Creatinine clearance (CCr): control 0.20; for Creatinine (serum, Scr): control 2.0; for Urea nitrogen (BUN): control 100. The procedure: The kidney disease model rats were prepared by ligature of branches of renal artery in accordance with the conventional method, that is, the left hilum renalis of Sprague-Dawley female rats was exposed under anesthesia, and one of four secondary branches of renal artery was left unligated, while the remaining three branches were ligated, respectively. […] Each group consisted of eight rats. The drugs to be tested (20 mg/kg) were administered to each administering group, and only water was administered to control group. After two days from the administration, the systolic blood pressure was measured by the tail cuff method using a blood pressure measuring apparatus (UR5000; Ueda).
The kidney disease model rats were prepared as in Example 21. Fifteen groups (8 rats per group) were sleeked in a manner so that there were no major differences between each group in the serum creatinine value and the urea nitrogen value indicating renal function. The rats in each group were allowed to freely take up feed and water. […] To the rats in the control group, only water was forcedly administered per os every day. After two weeks, 0.2 ml of blood was collected from the carotid artery of the rat under anesthesia, and centrifuged to obtain serum. Using 25 μl of the serum, serum creatinine (Scr) was measured by a creatinine analytical instrument (Beckman). Using 10 μl of the serum, urea nitrogen (BUN) was measured by a BUN analytical instrument (Beckman). Creatinine clearance was evaluated as follows:
After serum creatinine measurement, rats were placed in urinary metabolic cages for 24 hours to collect urine. Urinary creatine concentration (Ucr) was measured by a creatinine analytical instrument, and total volume of urination (Uvol) was also measured. Creatinine clearance (CCr) was calculated by the following formula: [formula]

Series [8] relates to hyperlipemia model rats. Conditions: cited from earlier work.
Series [9] relates to renal dysfunction model rats. As to conditions: cited from earlier work.
For series [10] the following is noted: ACE inhibitor; cited from earlier work.

Turning to `CCCN(Cc1ccc(-c2ccccc2-c2nnn[nH]2)cc1)c1ncccc1C(=O)O` [A-81988, 2-[N-propyl-N-[[2'-(1H-tetrazol-5-yl)biphenyl-4-yl]methyl]amino]pyridine-3-carboxylic acid], in series [1], the blood pressure entry is recorded as “the reduction of blood pressure was observed” and the proteinuria entry is recorded as “proteinuria was improved”.

Usually inhibition stands for the relative decrease from the control value, in per cent. Consider `CCCCC(=O)Nc1c(Cl)ncnc1NCc1ccc(C(=O)OC)cc1` [Compound No. 1, methyl 4-[[(6-chloro-5-valeramido)pyrimidin-4-yl]aminomethyl]benzoate], for which the “Number of deaths/number of survivals” value in [2] is 0/5. Also, the inhibition at 100 µM in [3] is 0%. Further, the “Blood pressure (average systolic)” value in [4] is given as 210 mmHg. The inhibition at 100 µM in [5] came out at 11%. In series [6], this compound registered an Average survival time of 6.9 weeks. Also, in [7], the “Creatinine clearance (CCr)” value was 0.29 mL/min; the “Creatinine (serum, Scr)” value worked out at 1.7 mg/dL; the “Urea nitrogen (BUN)” value is 84 mg/dL.

For the compound `CCCCc1nc(Cl)c(CO)n1Cc1ccc(-c2ccccc2-c2nnn[nH]2)cc1` [DuP753, 2-butyl-4-chloro-5-(hydroxymethyl)-1-[[2'-(1H-tetrazol-5-yl)biphenyl-4-yl]methyl]imidazole], in [4] (comparison with control group), the “action to depress blood pressure (in words)” value is listed as “clearly showed the action to depress the blood pressure”. In addition, the blood pressure result in [8] (large dose more effective against the kidney disease) is “an evident reduction of blood pressure was observed”. Further, in [8] (lower dose), the blood pressure result is on record as “without practical effect to blood pressure” and the “effect on kidney disease” value was “the kidney disease was improved”. In series [9], the blood pressure entry is recorded as “the reduction of blood pressure accompanied”; the “effect on proteinuria and glomerulosclerosis” value was “effective against proteinuria and glomerulosclerosis”.

For the compound `C[C@H](CS)C(=O)N1CCC[C@H]1C(=O)O` [captoril], in series [10], the blood pressure entry is reported as “blood pressure is lowered” and the “progress of renal dysfunction” value is “the progress of renal dysfunction is improved”.

In turn, `CCCCC(=O)Nc1c(NCCc2ccccc2)ncnc1NCc1ccc(OC)cc1` [compound 90, 4-[[(6-phenethylamino-5-valeramido)pyrimidin-4-yl]aminomethyl]anisole] displayed an inhibition at 100 µM in series [3] of 0%. The “Blood pressure (average systolic)” value in [4] amounted to 208 mmHg. The compound also gave an inhibition at 100 µM in series [5] of 20%. The compound also registered an Average survival time in series [6] of 6.9 weeks. In addition, in series [7], the “Creatinine clearance (CCr)” value stood at 0.29 mL/min; the “Creatinine (serum, Scr)” value stood at 1.7 mg/dL; the “Urea nitrogen (BUN)” value stood at 82 mg/dL.

Turning to `CCOC(=O)[C@H](CCc1ccccc1)N[C@@H](C)C(=O)N1CCC[C@H]1C(=O)O` [enalapril], in [10], the blood pressure result was “blood pressure is lowered” and the “progress of renal dysfunction” value is listed as “the progress of renal dysfunction is improved”.

(Values after patent US5585381A, “Pyrimidine derivatives and pharmaceutical composition” (Kureha Chemical Industry Co., Ltd., priority 1994, dated 1996).)
